# Test results from patent US20260274810A1, “NOVEL MITOFUSIN INHIBITORS” (ALBERT EINSTEIN COLLEGE OF MEDICINE, priority 2023, published 2026).
# How the values were obtained:
# MOLM13 cells = assay: Caspase 3/7 activation with AMG-176; format: cell-based; settings: increasing concentrations of AMG-176 and MFI8
# Method: (§1) Caspase-3/7 activation assay. Cells (5×10^3 cells/well) were seeded in a 96-well white plate and treated with MASM7, MFI8. Caspase 3/7 activation was measured after 6 hr by addition of the Caspase-Glo 3/7 reagent according to the manufacturer's protocol (Promega). Luminescence was detected by a F200 PRO microplate reader (TECAN). Caspase assays were performed in at least triplicate and the data normalized to vehicle-treated control wells. Dilutions of MASM7 or MFI8 were performed using a TECAN D300e Digital Dispenser from 10 mM stocks.
# cells = assay: Cell death assay (Annexin V / PI); format: cell-based
# Method: (§2) Cell death assay. Cells (2×10^5 cells/well) were seeded in a 6-well plate and treated with the indicated drugs for 6 hours. Cells were dissociated using Accutase (Thermo Fisher; Cat. #00-4555-56) in order to avoid accidental exposure of phosphatidylserine on the outer plasma membrane. Cell death was evaluated with Dead Cell Apoptosis Kit with Annexin V Alexa Fluor™ 488 & Propidium Iodide (Thermo Fisher; Cat. #V13241) according to manufacturer's protocol. Data was acquired by BD LSRII flow cytometer system using BD FACSDiva software. Data was analyzed by FlowJo (BD).
# caspase-3/7 in MEFs = assay: Caspase-3/7 activation assay; format: cell-based, mouse
# Method: as §1
# MEFs [1] = assay: RNA-seq; format: cell-based, mouse
# Source text: RNA-seq. Sequencing results were demultiplexed and converted to FASTQ format using Illumina bcl2fastq software. The sequencing reads were adapter and quality trimmed with Trimmomatic and then aligned to the mouse genome (build mm10/GRCm38) using the splice-aware STAR aligner. The featureCounts program was utilized to generate counts for each gene based on how many aligned reads overlap its exons. These counts were then normalized and used to test for differential expression using negative binomial generalized linear models implemented by the DESeq2 R package.
# MEFs [2] = assay: Mitochondrial membrane potential (TMRE); format: cell-based, mouse
# Method: Mitochondrial depolarization assay (mtΔΨ). MEFs (10^4 cells/well) were seeded in a 96-well black plate and treated with MASM7 or MFI8 for 6 hrs. Following treatments, cells were stained with 250 nM TMRE (Sigma; Cat. 87917) for 20 min at 37° C. Subsequently, cells were washed with thrice with PBS. Fluorescence intensity was detected by a M100 microplate reader (TECAN, Ex: 540 nm/Em: 579 nm).
# MFN1 and MFN2 = MFN1 and MFN2 gene expression and protein levels; format: cell-based
# Method: Western blot. Western blots were performed from whole cell lysates (WCL) prepared in lysis buffer containing 50 mM Tris-HCl pH 7.5, 1% Triton X-100, 150 mM NaCl, 5 mM MgCl2, 1 mM EGTA and 10% glycerol in the presence of protease inhibitor cocktail (Roche).
# Analysis of mitochondrial biogenesis-related genes by q-PCR. Total RNA was extracted by using RNeasy Mini Kit (Qiagen) followed by cDNA synthesis using the SuperScript IV VILO Master Mix (Thermo Scientific), both performed according to the manufacturer's protocol. q-PCR was performed using the following primers: […]
# For the q-PCR reaction, Power SYBR Green master mix (Thermo Scientific) was used according to the manufacturer's instructions. Briefly, each reaction consisted of 10 ng cDNA, 5 μL Power SYBR Green master mix, 200 nM primers (forward and reverse), and RNase-free water up to 10 μL. q-PCR was performed on the ViiA 7 Real-Time PCR System (Thermo Scientific) with the following cycle parameter: 95° C. for 10 min, 40 cycles of 95° C. for 15 s, and 60° C. for 1 min. q-PCR products were analyzed by melting curves for unspecific products or primer dimer formation.
# U2OS cells [3] = assay: DNA damage, γH2AX immunofluorescence; format: cell-based
# Method: Immunofluorescent analysis and microscopy. Cells were treated with MASM7, MFI8 and or Q-VD-OPh at ~70% confluence for 6 h. After treatments, cells were washed with PBS and fixed with 4% PFA for 15 min. Then cells were permeabilized with 0.1% Triton X-100 in PBS for 10 min. Cells were blocked with 5% BSA in PBS-T and incubated overnight with primary antibodies as indicated; γH2AX (Sigma; 05-636, 1:100 dilution). After incubation with primary antibodies, cells were washed with PBS and incubated with the appropriate mouse secondary antibody (ThermoFisher Scientific; A-11001) in the blocking solution. After PBS washes, coverslips were dipped in water and mounted on glass slides using Vectashield containing DAPI (Vector laboratories). Images were taken with Leica SP5 inverted confocal microscope. Data were analyzed with ImageJ.
# THP-1 cells = assay: Cell death with BV6; format: cell-based
# Method: as §2
# U2OS cells [4] = assay: Cell death with BV6; format: cell-based
# Method: as §2
smiles,measurement,setting,value
Cc1cccc(NC(C)c2cc(Cl)ccc2O)c1C (stereo not shown) [MFI8],caspase 3/7 activation in combination with AMG-176,MOLM13 cells,sensitizes cells to caspase activation in response to BH3 mimetic (MCL-1 inhibitor) AMG-176 treatment
same,sensitization to BV6-induced cell death,cells; combined with BV6,potentiated the capacity of BV6 to induce cell death
same,sensitization to BV6-induced cell death,cells; deletion of MFN1/2 and APAF,abolished the capacity of MFI8 to sensitize cells to BV6 treatment
same,percentage of dead cells,cells; upon caspase 3/7 activation,did not increase the percentage of dead cells
same,caspase-3/7 activity,caspase-3/7 in MEFs; 6 hr,concentration-responsively increased caspase-3/7 activity
same,caspase 3/7 activity,caspase-3/7 in MEFs; deletion of APAF-1,detrimental for the capacity of MFI8 to increase caspase 3/7 activity
same,caspase-3/7 activity,caspase-3/7 in MEFs; deletion of MFN1/MFN2,impaired the capacity of MFI8 to increase caspase-3/7 activity
same,genes involved in DNA damage response,MEFs [1]; MEFs,up-regulated several genes that are involved in DNA damage response
same,gene expression of subunits of the respiratory complexes,MEFs [1]; RNA-seq,reduced the gene expression of several nuclear-encoded subunits of the respiratory complexes
same,mitochondrial membrane potential,MEFs [2]; MFN1/MFN2 DKO MEFs reconstituted with WT MFN2,significantly decreased mitochondrial membrane potential
same,mitochondrial membrane potential,"MEFs [2]; WT MEFs, 6 hrs",concentration responsively decreased mitochondrial membrane potential
same,MFN1 and MFN2 gene expression and protein levels,MFN1 and MFN2,neither MASM7 nor MFI8 altered
same,DNA damage,U2OS cells [3]; U2OS cells,induced DNA damage in U2OS cells
same,DNA damage,"U2OS cells [3]; U2OS, co-treatment with pan-caspase inhibitor Q-VD-OPh",abolished the capacity of the latter to induce DNA damage
same,cell death in combination with BV6,THP-1 cells,synergistically induce cell death
same,cell death in combination with BV6,U2OS cells [4],synergistically induce cell death
